Measured values from PubChem BioAssay (NCI).
Where “and” joins values, the source holds several entries; their conditions need not be identical. Equal values may be shown once.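 These data come from cells grown in 96-well plates and exposed to compound for 48 hours at five concentrations. At the GI50, growth is halved. TGI: concentration producing complete growth inhibition.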

Legend:
Test in all cases: NCI-60 cell line screen, 48 h
K-562 leukemia = tested on: K-562 leukemia
RPMI-8226 leukemia = tested on: RPMI-8226 leukemia
EKVX NSCLC = tested on: EKVX NSCLC
DU-145 prostate = tested on: DU-145 prostate
A549 NSCLC = tested on: A549 NSCLC
LOX IMVI melanoma = tested on: LOX IMVI melanoma
CAKI-1 renal = tested on: CAKI-1 renal
M14 melanoma = tested on: M14 melanoma
SK-MEL-2 melanoma = tested on: SK-MEL-2 melanoma
MDA-MB-435 = tested on: MDA-MB-435
HCT-15 colon = tested on: HCT-15 colon
MOLT-4 leukemia = tested on: MOLT-4 leukemia
PC-3 prostate = tested on: PC-3 prostate
SR leukemia = tested on: SR leukemia
UO-31 renal = tested on: UO-31 renal
UACC-257 melanoma = tested on: UACC-257 melanoma
HOP-62 NSCLC = tested on: HOP-62 NSCLC
U251 CNS = tested on: U251 CNS
BT-549 breast = tested on: BT-549 breast
SNB-19 CNS = tested on: SNB-19 CNS
NCI-H460 lung = tested on: NCI-H460 lung
SK-MEL-28 melanoma = tested on: SK-MEL-28 melanoma
SW-620 colon = tested on: SW-620 colon
SK-OV-3 ovarian = tested on: SK-OV-3 ovarian
NCI-H226 lung = tested on: NCI-H226 lung
SN12C renal = tested on: SN12C renal
HCT-116 colon = tested on: HCT-116 colon
SF-539 CNS = tested on: SF-539 CNS
HS 578T breast = tested on: HS 578T breast
SK-MEL-5 melanoma = tested on: SK-MEL-5 melanoma
SF-295 CNS = tested on: SF-295 CNS
MDA-MB-231 breast = tested on: MDA-MB-231 breast
NCI-H522 lung = tested on: NCI-H522 lung
NCI-H23 lung = tested on: NCI-H23 lung
OVCAR-8 ovarian = tested on: OVCAR-8 ovarian
SNB-75 CNS = tested on: SNB-75 CNS
ACHN renal = tested on: ACHN renal
NCI/ADR-RES ovarian = tested on: NCI/ADR-RES ovarian
KM12 colon = tested on: KM12 colon
TK-10 renal = tested on: TK-10 renal
T-47D breast = tested on: T-47D breast
CCRF-CEM leukemia = tested on: CCRF-CEM leukemia
OVCAR-5 ovarian = tested on: OVCAR-5 ovarian
HL-60(TB) leukemia = tested on: HL-60(TB) leukemia
IGROV1 ovarian = tested on: IGROV1 ovarian
SF-268 CNS = tested on: SF-268 CNS
MALME-3M melanoma = tested on: MALME-3M melanoma
COLO 205 colon = tested on: COLO 205 colon
HOP-92 NSCLC = tested on: HOP-92 NSCLC
OVCAR-3 ovarian = tested on: OVCAR-3 ovarian
OVCAR-4 ovarian = tested on: OVCAR-4 ovarian
786-0 renal = tested on: 786-0 renal
UACC-62 melanoma = tested on: UACC-62 melanoma
A498 renal = tested on: A498 renal
MCF7 breast = tested on: MCF7 breast
HCC-2998 colon = tested on: HCC-2998 colon

Nc1nc(N)c2c(ccc3c2ccn3Cc2cccc([N+](=O)[O-])c2)n1
TGI (K-562 leukemia): 21600 nM
GI50 (RPMI-8226 leukemia): 58.5 nM and 18.5 nM
GI50 (EKVX NSCLC): 1320 nM
GI50 (DU-145 prostate): 151 nM and 86 nM
TGI (DU-145 prostate): 2080 nM and 2000 nM
GI50 (A549 NSCLC): 4.96 nM
TGI (A549 NSCLC): 1570 nM
GI50 (LOX IMVI melanoma): 8.31 nM
TGI (LOX IMVI melanoma): 1470 nM
GI50 (CAKI-1 renal): 56.2 nM
TGI (CAKI-1 renal): 1900 nM
GI50 (M14 melanoma): 8.65 nM
TGI (M14 melanoma): 1770 nM
GI50 (SK-MEL-2 melanoma): 1260 nM
TGI (SK-MEL-2 melanoma): 2620 nM
GI50 (MDA-MB-435): 21.7 nM
TGI (MDA-MB-435): 2400 nM and 2590 nM
GI50 (HCT-15 colon): 12.6 nM
TGI (HCT-15 colon): 1580 nM and 1700 nM
GI50 (MOLT-4 leukemia): 70.4 nM and 62.1 nM
TGI (MOLT-4 leukemia): 2490 nM
GI50 (PC-3 prostate): 163 nM and 20.1 nM
TGI (PC-3 prostate): 2740 nM and 1740 nM
GI50 (SR leukemia): 7.79 nM
GI50 (UO-31 renal): 43 nM
TGI (UO-31 renal): 806 nM
GI50 (UACC-257 melanoma): 1070 nM
TGI (UACC-257 melanoma): 2470 nM
GI50 (HOP-62 NSCLC): 65.4 nM
TGI (HOP-62 NSCLC): 1870 nM
GI50 (U251 CNS): 18 nM
TGI (U251 CNS): 1720 nM
GI50 (BT-549 breast): 1250 nM
TGI (BT-549 breast): 3050 nM
GI50 (SNB-19 CNS): 89.8 nM
TGI (SNB-19 CNS): 2420 nM
GI50 (NCI-H460 lung): 5.01 nM
TGI (NCI-H460 lung): 1890 nM and 1350 nM
GI50 (SK-MEL-28 melanoma): 1040 nM and 1020 nM
TGI (SK-MEL-28 melanoma): 2360 nM and 2200 nM
GI50 (SW-620 colon): 5.56 nM
TGI (SW-620 colon): 1730 nM and 1640 nM
GI50 (SK-OV-3 ovarian): 88.8 nM and 540 nM
TGI (SK-OV-3 ovarian): 2010 nM and 2110 nM
GI50 (NCI-H226 lung): 272 nM
TGI (NCI-H226 lung): 2420 nM
GI50 (SN12C renal): 61.5 nM
TGI (SN12C renal): 1650 nM
GI50 (HCT-116 colon): 5.91 nM
TGI (HCT-116 colon): 1840 nM
GI50 (SF-539 CNS): 45.4 nM
TGI (SF-539 CNS): 1640 nM
GI50 (HS 578T breast): 1610 nM
TGI (HS 578T breast): 3380 nM
GI50 (SK-MEL-5 melanoma): 74.4 nM
TGI (SK-MEL-5 melanoma): 2150 nM and 1450 nM
TGI (SF-295 CNS): 3490 nM and 4550 nM
GI50 (MDA-MB-231 breast): 1270 nM
TGI (MDA-MB-231 breast): 2640 nM
GI50 (NCI-H522 lung): 60.7 nM
TGI (NCI-H522 lung): 1820 nM
GI50 (NCI-H23 lung): 56.6 nM
TGI (NCI-H23 lung): 2460 nM
GI50 (OVCAR-8 ovarian): 9.01 nM
TGI (OVCAR-8 ovarian): 1700 nM
GI50 (SNB-75 CNS): 1110 nM
TGI (SNB-75 CNS): 2360 nM
GI50 (ACHN renal): 37.2 nM
TGI (ACHN renal): 1740 nM
GI50 (NCI/ADR-RES ovarian): 77.5 nM and 83.5 nM
TGI (NCI/ADR-RES ovarian): 18600 nM
GI50 (KM12 colon): 93.7 nM and 129 nM
TGI (KM12 colon): 2210 nM and 1950 nM
GI50 (TK-10 renal): 1140 nM
TGI (TK-10 renal): 2670 nM
GI50 (T-47D breast): 739 nM
TGI (T-47D breast): 3050 nM
GI50 (CCRF-CEM leukemia): 22.1 nM and 12.6 nM
TGI (CCRF-CEM leukemia): 2030 nM and 1070 nM
GI50 (OVCAR-5 ovarian): 50.4 nM
TGI (OVCAR-5 ovarian): 2360 nM
GI50 (HL-60(TB) leukemia): 9.18 nM and 47.6 nM
TGI (HL-60(TB) leukemia): 2500 nM
GI50 (IGROV1 ovarian): 2.95 nM
TGI (IGROV1 ovarian): 25.5 nM
GI50 (SF-268 CNS): 53.5 nM
TGI (SF-268 CNS): 1990 nM
GI50 (MALME-3M melanoma): 1210 nM
TGI (MALME-3M melanoma): 2810 nM
GI50 (COLO 205 colon): 1100 nM and 150 nM
TGI (COLO 205 colon): 4080 nM and 1790 nM
TGI (HOP-92 NSCLC): 3050 nM and 1050 nM
GI50 (OVCAR-3 ovarian): 1010 nM and 794 nM
TGI (OVCAR-3 ovarian): 2240 nM and 2220 nM
GI50 (OVCAR-4 ovarian): 1150 nM
TGI (OVCAR-4 ovarian): 2590 nM
GI50 (786-0 renal): 41.1 nM
TGI (786-0 renal): 1500 nM
GI50 (UACC-62 melanoma): 30.6 nM
TGI (UACC-62 melanoma): 1390 nM
GI50 (A498 renal): 166 nM and 224 nM
TGI (A498 renal): 1970 nM and 1940 nM
GI50 (MCF7 breast): 56.5 nM and 29.3 nM
TGI (MCF7 breast): 2720 nM and 1450 nM
GI50 (HCC-2998 colon): 49 nM
TGI (HCC-2998 colon): 1560 nM
